Results reported in patent publication US20070027130A1, “Tricyclic 6-alkylidene-penem beta-lactamase inhibitors and beta-lactam antibiotic combination: a broad spectrum antibiotic” (priority 2005, published 2007).
≈ marks a conversion by molar mass, not a printed value.

Assays:
Assay in all cases: MIC microbroth dilution
Assay type in all cases: cell-based
E. coli GC 6368 (SHV-7) = conditions: Escherichia coli, β-lactamase class A (ESBL), MHBII, 35° C. 18 hr, read-out: Minimal Inhibitory Concentration
How it was run: (§1)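 MHBII, NCCLS microbroth dilution; 35 C, ambient air, 18-22 hours.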

[1] = test system: K. pn GC 6488 (TEM-1 + SHV-5 + SHV-7); conditions: Klebsiella pneumoniae, β-lactamase class A, A (ESBL), MHBII, 35° C. 18 hr, read-out: Minimal Inhibitory Concentration
How it was run: as §1

[2] = test system: P. aeruginosa GC 1764 (AmpC); conditions: Pseudomonas aeruginosa, β-lactamase class C, MHBII, 35° C. 18 hr, read-out: Minimal Inhibitory Concentration
How it was run: as §1

E. coli GC 1480 OXA-1 = conditions: Escherichia coli, GC1480OXA1, β-lactamase class D, MHBII, 35° C. 18 hr, read-out: Minimal Inhibitory Concentration
How it was run: as §1

[3] = test system: K. pn GC 6494 (TEM-1 + SHV-5); conditions: Klebsiella pneumoniae, β-lactamase class A, A (ESBL), MHBII, 35° C. 18 hr, read-out: Minimal Inhibitory Concentration
How it was run: as §1

[4] = test system: P. aeruginosa PT 8503 PTZ-R; conditions: Pseudomonas aeruginosa, PT8503PTZR; P. aeruginosa PT 8503, piperacillin-tazobactam-resistant; MHBII, 35° C. 18 hr; read-out: Minimal Inhibitory Concentration
How it was run: as §1

[5] = test system: S. marcescens PT 696 Inducible AmpC; conditions: Serratia marcescens, β-lactamase class C, MHBII, 35° C. 18 hr, read-out: Minimal Inhibitory Concentration
How it was run: as §1

[6] = test system: K. pneumoniae GC 7823 Fox 5; conditions: Klebsiella pneumoniae, GC7823FOX5, β-lactamase class C, MHBII, 35° C. 18 hr, read-out: Minimal Inhibitory Concentration
How it was run: as §1

E. coli GC 2253 (IRT-2) = conditions: Escherichia coli, 18 h, read-out: Minimal Inhibitory Concentration
How it was run: as §1

[7] = test system: E. coli GC 1695 (TEM-1 + TEM-10); conditions: Escherichia coli, β-lactamase class A, A (ESBL), MHBII, 35° C. 18 hr, read-out: Minimal Inhibitory Concentration
How it was run: as §1

[8] = test system: E. cloacae PT 967 Inducible AmpC; conditions: Enterobacter cloacae, β-lactamase class C, MHBII, 35° C. 18 hr, read-out: Minimal Inhibitory Concentration
How it was run: as §1

[9] = test system: E. aerogenes GC 7039 TEM-4, Amp C inducable; conditions: Klebsiella aerogenes, β-lactamase class A (ESBL), MHBII, 35° C. 18 hr, read-out: Minimal Inhibitory Concentration
How it was run: as §1

[10] = test system: S. typhimurium GC 4198 SHV-1 CTX-M-5; conditions: Salmonella enterica, 18 h, read-out: Minimal Inhibitory Concentration
How it was run: as §1

E. coli ATCC 35218 TEM-1 = conditions: Escherichia coli, ATCC35218, 18 h, read-out: Minimal Inhibitory Concentration
How it was run: as §1

[11] = test system: K. pn GC 2006 (TEM-10 + SHV-1); conditions: Klebsiella pneumoniae, β-lactamase class A, A (ESBL), MHBII, 35° C. 18 hr, read-out: Minimal Inhibitory Concentration
How it was run: as §1

[12] = test system: A. baumannii GC 7687 AmpC; conditions: Acinetobacter baumannii, GC7687AMPC, β-lactamase class C, MHBII, 35° C. 18 hr, read-out: Minimal Inhibitory Concentration
How it was run: as §1

K. pn GC 1510 (TEM-10) = conditions: Klebsiella pneumoniae, β-lactamase class A (ESBL), MHBII, 35° C. 18 hr, read-out: Minimal Inhibitory Concentration
How it was run: as §1

[13] = test system: P. aeruginosa PT 9236 PTZ-R; conditions: Pseudomonas aeruginosa, PT9236PTZR; P. aeruginosa PT 9236, piperacillin-tazobactam-resistant; MHBII, 35° C. 18 hr; read-out: Minimal Inhibitory Concentration
How it was run: as §1

[14] = test system: E. coli LSU 80-8 GC 6265 TEM-1; conditions: Escherichia coli, read-out: MIC* (minimum inhibitory concentration)
How it was run: as §1

[15] = test system: K. pn GC 1507 (TEM-9 + SHV-1); conditions: Klebsiella pneumoniae, β-lactamase class A, A (ESBL), MHBII, 35° C. 18 hr, read-out: Minimal Inhibitory Concentration
How it was run: as §1

[16] = test system: P. aeruginosa PT 8411 PTZ-R*; conditions: Pseudomonas aeruginosa; P. aeruginosa PT 8411, piperacillin-tazobactam-resistant; MHBII, 35° C. 18 hr; read-out: Minimal Inhibitory Concentration
How it was run: as §1

[17] = test system: K. oxytoca GC 7627 TEM-1 K1 KPC-2; conditions: Klebsiella oxytoca, 18 h, read-out: Minimal Inhibitory Concentration
How it was run: as §1

[18] = test system: E. coli ATCC 25922 (none); conditions: Escherichia coli, ATCC25922, β-lactamase class none, MHBII, 35° C. 18 hr, read-out: Minimal Inhibitory Concentration
How it was run: as §1

[19] = test system: S. marcescens GC 4132 (AmpC); conditions: Serratia marcescens, β-lactamase class C, MHBII, 35° C. 18 hr, read-out: Minimal Inhibitory Concentration
How it was run: as §1

CO/N=C(\C(=O)N[C@@H]1C(=O)N2C(C(=O)[O-])=C(C[N+]3(C)CCCC3)CS[C@H]12)c1csc(N)n1 [Cefepime]
MIC (E. coli GC 6368 (SHV-7)): 2 µg/mL (≈ 4.16 µM) | MIC [1]: 8 µg/mL (≈ 16.6 µM) | MIC [2]: 8 µg/mL (≈ 16.6 µM) | MIC (E. coli GC 1480 OXA-1): 4 µg/mL (≈ 8.32 µM) | MIC [3]: 4 µg/mL (≈ 8.32 µM) | MIC [4]: 8 µg/mL | MIC [5]: 0.5 µg/mL (≈ 1.04 µM) | MIC [6]: 1 µg/mL (≈ 2.08 µM) | MIC (E. coli GC 2253 (IRT-2)): 0.03 µg/mL (≈ 0.0624 µM) | MIC [7]: 16 µg/mL (≈ 33.3 µM) | MIC [8]: 0.12 µg/mL (≈ 0.25 µM) | MIC [9]: > 16 µg/mL | MIC [10]: > 16 µg/mL | MIC (E. coli ATCC 35218 TEM-1): 0.03 µg/mL (≈ 0.0624 µM) | MIC [11]: > 16 µg/mL | MIC [12]: 16 µg/mL (≈ 33.3 µM) | MIC (K. pn GC 1510 (TEM-10)): 0.5 µg/mL (≈ 1.04 µM) | MIC [13]: > 16 µg/mL | MIC [14]: 0.06 µg/mL (≈ 0.125 µM) | MIC [15]: 8 µg/mL (≈ 16.6 µM) | MIC [16]: 16 µg/mL | MIC [17]: > 16 µg/mL | MIC [18]: 0.03 µg/mL (≈ 0.0624 µM) | MIC [19]: 0.5 µg/mL (≈ 1.04 µM)
